Measured values: paper PMC6158709, “Chemical genetic inhibition of DEAD-box proteins using covalent complementarity” (Nucleic Acids Research, 2018)

Key:
HA-eIF4A^ES = biological target: T1, HA-eIF4A^ES (Saccharomyces cerevisiae, UniProt P10081); assay: competition of N-propargylmaleimide labelling, click TAMRA, in gel fluorescence after HA immunoprecipitation; type: biochemical; settings: covalent; yeast lysate, 10 μM AMP-acrylate followed by 10 μM NPM
T1 construct: gene TIF1; HA-tagged ES mutant in yeast lysate, immunoprecipitated after labelling
T1 sequence (P10081 2-395): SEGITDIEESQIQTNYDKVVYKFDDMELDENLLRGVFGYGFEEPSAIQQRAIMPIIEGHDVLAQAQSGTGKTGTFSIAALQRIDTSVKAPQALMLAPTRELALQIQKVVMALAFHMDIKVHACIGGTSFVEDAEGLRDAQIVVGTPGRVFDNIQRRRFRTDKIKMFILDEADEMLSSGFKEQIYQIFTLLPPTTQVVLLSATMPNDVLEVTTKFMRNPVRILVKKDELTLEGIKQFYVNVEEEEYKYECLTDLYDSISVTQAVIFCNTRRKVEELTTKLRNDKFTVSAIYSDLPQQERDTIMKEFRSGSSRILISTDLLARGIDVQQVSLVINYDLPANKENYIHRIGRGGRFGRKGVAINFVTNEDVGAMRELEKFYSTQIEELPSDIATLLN

Dbp2 = biological target: T2, Dbp2 (Saccharomyces cerevisiae, UniProt P24783, S161C); assay: RNA duplex unwinding assay; type: biochemical; settings: covalent; 0.5 μM enzyme, 2 mM ATP/MgCl2, pH 7.5, 5 min pre-incubation
T2 construct: full-length, expressed in E. coli BL21 (DE3) as 6xHis-SUMO fusion, incubated with SUMO protease
T2 sequence (P24783 whole entry S161C, the tested form may be a part): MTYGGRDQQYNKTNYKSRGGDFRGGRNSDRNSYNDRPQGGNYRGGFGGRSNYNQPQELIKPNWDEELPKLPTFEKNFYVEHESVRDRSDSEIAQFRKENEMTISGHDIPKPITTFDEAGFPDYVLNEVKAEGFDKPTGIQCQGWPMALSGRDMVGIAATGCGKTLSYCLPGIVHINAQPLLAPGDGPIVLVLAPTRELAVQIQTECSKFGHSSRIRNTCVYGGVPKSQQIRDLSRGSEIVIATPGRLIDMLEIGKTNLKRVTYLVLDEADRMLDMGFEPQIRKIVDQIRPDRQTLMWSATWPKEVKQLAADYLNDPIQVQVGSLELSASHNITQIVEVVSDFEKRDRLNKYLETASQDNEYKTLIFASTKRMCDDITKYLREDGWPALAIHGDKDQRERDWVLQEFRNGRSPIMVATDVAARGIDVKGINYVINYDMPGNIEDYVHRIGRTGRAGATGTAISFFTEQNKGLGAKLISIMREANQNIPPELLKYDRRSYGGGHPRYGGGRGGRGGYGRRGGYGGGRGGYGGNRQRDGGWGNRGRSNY

DDX3 (132-406) = biological target: T3, DDX3 (132-406) (Homo sapiens, UniProt O00571); assay: differential scanning fluorimetry; type: binding; settings: saturating AMP; 4 μM protein, pH 7.5, 5 mM MgCl2
T3 construct: gene DDX3X; truncated, residues 132-406, recombinant, purified as previously described
T3 sequence (O00571 132-406): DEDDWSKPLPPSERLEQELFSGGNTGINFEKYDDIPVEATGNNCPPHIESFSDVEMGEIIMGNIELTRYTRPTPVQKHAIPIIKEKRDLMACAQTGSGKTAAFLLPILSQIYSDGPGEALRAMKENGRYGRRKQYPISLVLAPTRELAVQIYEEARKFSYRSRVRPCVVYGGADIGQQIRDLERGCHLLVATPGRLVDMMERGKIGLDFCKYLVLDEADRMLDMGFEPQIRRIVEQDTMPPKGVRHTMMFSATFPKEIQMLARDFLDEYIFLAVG

DDX3 (132-607) = biological target: T4, DDX3 (132-607) (Homo sapiens, UniProt O00571); assay: coupled ATPase assay, RNA-dependent; type: biochemical; settings: duplex RNA; four ATP concentrations
T4 construct: gene DDX3X; helicase core, residues 132-607, recombinant, purified as previously described
T4 sequence (O00571 132-607): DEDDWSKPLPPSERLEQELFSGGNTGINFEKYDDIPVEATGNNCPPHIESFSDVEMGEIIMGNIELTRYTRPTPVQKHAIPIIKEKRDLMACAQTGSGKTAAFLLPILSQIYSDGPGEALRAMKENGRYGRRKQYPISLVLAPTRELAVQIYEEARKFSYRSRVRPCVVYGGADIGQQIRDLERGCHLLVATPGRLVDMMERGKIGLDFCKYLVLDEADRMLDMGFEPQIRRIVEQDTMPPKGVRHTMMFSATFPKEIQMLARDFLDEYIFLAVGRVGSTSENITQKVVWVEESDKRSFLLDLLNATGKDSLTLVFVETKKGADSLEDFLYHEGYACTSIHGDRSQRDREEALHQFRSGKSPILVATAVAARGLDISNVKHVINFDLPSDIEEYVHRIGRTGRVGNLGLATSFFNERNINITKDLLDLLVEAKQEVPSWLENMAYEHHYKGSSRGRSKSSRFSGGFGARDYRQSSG

C=CC(=O)OP(=O)(O)OC[C@H]1O[C@@H](n2cnc3c(N)ncnc32)[C@H](O)[C@@H]1O [AMP-acrylate]
NPM labeling (HA-eIF4A^ES): labeling of HA-eIF4A^ES by NPM is competed by AMP-acrylate treatment
fraction of RNA duplex unwound (Dbp2): duplex unwinding by ES Dbp2 (S161C) is reduced by AMP-acrylate

Nc1ncnc2c1ncn2[C@@H]1O[C@H](COP(=O)(O)O)[C@@H](O)[C@H]1O [AMP]
Tm (DDX3 (132-406)): Saturating concentrations of AMP stabilizes DDX3^WT and DDX3^ES to the same extent

Nc1ncnc2c1ncn2[C@@H]1O[C@H](COP(=O)(O)OP(=O)(O)OP(=O)(O)O)[C@@H](O)[C@H]1O [ATP]
coupled ATPase assay, RNA-dependent (DDX3 (132-607)): both DDX3^WT and DDX3^ES hydrolyzed ATP in the presence of duplex RNA
